# Measured values reported in US20180028478A1, “ANTIVIRAL COMPOSITIONS DIRECTED AGAINST THE NUCLEOPROTEIN OF INFLUENZA VIRUSES” (priority 2011, published 2018).
# Values joined by “and” are separate entries in the source; they are usually repeats but may differ in a detail not shown here. Identical values can stand only once. Like-named read-outs stand apart in the source and are kept apart here.
# What was measured:
# [1] = system: Influenza A/WSN/33 virus; test: microbe, parasite or virus in culture; format: cell-based, Influenza A/WSN/33 (H1N1); details: for IC50: Influenza A virus, WSN, MDCK, read-out: IC50 decrease × 10 viral titer/control (n = 2)
# [2] = system: Influenza A/PR8/34 virus; design: species or system Balb/C mice; details: mouse, in vivo
# [3] = system: H1N1 WSN strain
# [4] = system: H3N2 virus A/Udorn; details: MTT 24 h; A/Udorn MOI 10^−1; 100 μM
Structure (SMILES),"viral titer decrease, Naproxen vs Tamiflu [1]",IC10 decrease × 10 viral titer/control (n = 2) [1],Viral titer Pfu/ml MDCK cells ([1]; 50 μM),IC50 ([1]; 24 h),other results
"CCOC(=O)C1=C[C@@H](OC(CC)CC)[C@H](NC(C)=O)[C@@H](N)C1 [Tamiflu, oseltamivir]",viral titer decreases similarly,–,–,–,decrease factor of viral titer in lungs vs untreated infected controls [2]: ~100 factor
COc1ccc2cc(C(C)C(=O)O)ccc2c1 (stereo not shown) [Naproxen],viral titer decreases similarly,~50 μM,–,–,"decrease of viral titers with concentration [1]: the greater the concentration in Naproxen, the quicker the decrease of the viral titers; IC50 ([1]; 48 h): ~10 µM; weight loss [2]: 19%; decrease factor of viral titer in lungs vs untreated infected controls ([2]; ip): ~42 factor; infectious outbreaks in the cell layer and dead cells [3]: reduced the number and the size of the infectious outbreaks; localisation of nucleoprotein [3]: has not modified the localisation of nucleoprotein; Protection % [4]: 85 ± 2%"
O=C(O)c1ccc(C=Nn2c(S)nnc2-c2ccc(Cl)cc2Cl)cc1 [compound 59],–,~30 μM,5.5 ± 2.5 × 10^5 Pfu/ml,~5 µM,–
Cc1ccc(-c2nnc(S)n2/N=C/c2ccc(C(=O)O)cc2)cc1 [compound 72],–,~20 μM and ~35 μM,7.6 ± 4.0 × 10^5 Pfu/ml and 3.9 ± 1.6 × 10^6 Pfu/ml,~5 µM,–
COc1ccc(-c2nnc(S)n2N=Cc2ccc(C(=O)O)cc2)cc1 [compound 88],–,No effect,–,–,Viral titer Pfu/ml MDCK cells ([1]; 5 μM): 1-4 × 10^7 Pfu/ml
